Source: US20190352610A1, “METHODS OF GENERATING HEPATIC MACROPHAGES AND USES THEREOF” (AGENCY FOR SCIENCE, TECHNOLOGY AND RESEARCH, priority 2017, published 2019)

What was measured:
PHHs-NL-Mφ co-cultures = assay: Alamar Blue cell viability, PHHs-NL-Mφ co-cultures; assay type: cell-based, human; details: 24 hours treatment, PHHs-NL-Mφ co-cultures vs PHHs monocultures, FIG. 5C
Method: (§1) PHHs monocultures, PHHs-PHKCs co-cultures (FIG. 5A), PHHs-hPSC-KCs co-cultures (FIG. 5B) and PHHs-hPSC-Mac co-cultures (FIG. 5C) treated with LPS (solid lines) or left untreated (dashed lines) were exposed to Acetaminophen (APAP) 16 hours after LPS treatment. 24 hours after addition of the drug, cell viability was assayed using Alamar Blue. Cell viability is expressed as percentage of viable cells compared to vehicle control (DMSO). Data are presented as mean±s.d (n=3). * indicates statistically significant differences between LPS-activated monoculture and co-culture; # indicate statistically significant differences between non-activated monoculture and co-culture (p<0.05).
(§2) Previous reports have shown the suppression of CYP expression and activity in human and rat hepatocytes when co-cultured with Kupffer cells. […] Therefore, it was analyzed if differences could be identified between PHHs-PHKCs co-cultures and PHHs monocultures in toxicity responses to paradigm hepatotoxicants, and if this difference could be recapitulated in PHHs-hPSC-KCs or PHHs-hPSC-Mac co-cultures. The monocultures and co-cultures were treated with the paradigm hepatotoxicant acetaminophen for 24 hours, and cell viability was measured using Alamar Blue assay. Cell viability was quantified as percentage of […] compared to vehicle control (DMSO).

PHHs-PHKCs co-cultures = assay: Alamar Blue cell viability, PHHs-PHKCs co-cultures; assay type: cell-based, human; details: 24 hours treatment, PHHs-PHKCs co-cultures vs PHHs monocultures, FIG. 5A
Method: as §1, §2

[1] = tested on: PHHs-hPSC-KCs co-cultures; assay: Alamar Blue cell viability, PHHs-hPSC-KCs co-cultures; assay type: cell-based, human; details: 24 hours treatment, PHHs-hPSC-KCs co-cultures vs PHHs monocultures, FIG. 5B
Method: as §1, §2

[2] = tested on: PHKCs (primary human Kupffer cells); assay: cytokine production (ELISA) upon LPS activation, PHKCs; assay type: cell-based; details: LPS during last 16 hours of culture
Method: (§3) FIG. 3A are phase contrast images showing morphological changes in hPSC-KCs (upper panel) and NL-Mφ (lower panel) following LPS treatment. Scale bar: 100 μm. […] Supernatant from cell cultures were collected 16 hours after LPS treatment and cytokine production was measured using ELISA. IL-6 and TNF4α (after LPS treatment) production was not detected in PHHs. TNF4α production was not detected in NL-Mφ before LPS treatment. Data are presented after normalization to cell numbers and the bars represent mean±s.d. (n=3). Dashed lines represent fold differences between cytokine production before and after LPS treatment (folds are indicated on top of the dashed lines). Solid lines represent p<0.05 (two-tailed paired t-test). […] No significant differences were observed between IL-6 levels in hPSC-KCs and PHKCs in terms of basal levels (no LPS treatment) and LPS-induced levels. The fold increase in TNF4α production in hPSC-KCs (33 fold) was similar to the fold increase in PHKCs (35 fold). […] It has been reported that Kupffer cells show a lower extent of cytokine production upon cytokine stimulation.
(§4) For activation of hPSC-KCs to examine cytokine production, lipopolysaccharide (LPS) was added to the culture medium during the last 16 hours of culture. Medium was collected at the end of the incubation period and morphological changes and cytokine production upon LPS activation was analyzed. […]

[3] = tested on: primary human hepatocytes (PHHs); assay: cytokine production (ELISA) upon LPS activation, PHHs; assay type: cell-based
Method: as §3, §4

hPSC-KCs = assay: cytokine production (ELISA) and morphology upon LPS activation, hPSC-KCs; assay type: cell-based, human
Method: as §3
For activation of hPSC-KCs to examine cytokine production, lipopolysaccharide (LPS) was added to the culture medium during the last 16 hours of culture. Medium was collected at the end of the incubation period and morphological changes and cytokine production upon LPS activation was analyzed. […] The fold increase in TNF4α production in hPSC-KCs (33 fold) was similar to the fold increase in PHKCs (35 fold) (FIG. 3C).

[4] = tested on: NL-Mφ (non-liver macrophages); assay: cytokine production (ELISA) and morphology upon LPS activation, NL-Mφ; assay type: cell-based, human
Method: as §3, §4

Molecule | cell death compared to PHHs monocultures (PHHs-NL-Mφ co-cultures) | cell death compared to monoculture controls (PHHs-PHKCs co-cultures) | cell death compared to monoculture controls [1] | fold induction of IL-6 production ([2]; FIG. 3B) [fold] | fold increase in TNF4α production ([2]; FIG. 3C) [fold] | IL-6 production ([3]; FIG. 3B) | TNF4α production ([3]; upon LPS activation) | morphological changes (hPSC-KCs; LPS activation, FIG. 3A) | fold induction of IL-6 production (hPSC-KCs; LPS during last 16 hours of culture, FIG. 3B) | fold increase in TNF4α production (hPSC-KCs; LPS during last 16 hours of culture, FIG. 3C) [fold] | levels of cytokines (IL-6, TNF4α) ([4]; NL-Mφ compared to PHKCs and hPSC-KCs, FIG. 3B and 3C) | morphological changes ([4]; NL-Mφ, LPS activation, FIG. 3A)
CC(=O)Nc1ccc(O)cc1 [acetaminophen] | No difference in cell death | higher cell death | higher cell death | – | – | – | – | – | – | – | – | –
lipopolysaccharide [LPS] | – | – | – | 25 | 35 | below detectable levels | below detectable levels | from round to flat and spread cells | in the same range as that of the PHKCs | 33 | much higher levels | from round to flat and spread cells
